Twelve molecules from patent publication US11553718B2, “Mic reduction with lithium ions” (priority 2014, dated 2023) can be followed below.

Several values for one entry are separate records, joined by “and”; a condition that tells them apart may be missing. Identical values can stand only once. Like-named read-outs stand apart in the source and are kept apart here.

In one assay the test system is bacterial strain rOmyAK. The experiment in a line: microbe, parasite or virus in culture. The format is cell-based, Pseudomonas mendocina. The conditions noted are these: for MIC: Thioalkalivibrio paradoxus, read-out: MIC active/aequeous, rOmyAK; for MIC ratio (MICwithout Li/MICLi): rOmyAK. The procedure: (§1) When not otherwise indicated, the quoted bacterial counts (values are in cfu/plate) in the Tables here below are determined after 2 days following plate-out and incubation at 30° C. The counting method was as follows. The aqueous preparations were stirred well with a cotton swap (e.g. Applimed SA, No. 1102245); the excess aqueous preparation was removed by dipping it gently to the side of the aqueous preparation container, leaving approximately 200 mg of aqueous preparation on the swap. […] TSA plates were then incubated for 48 h at 30° C. Colony forming units (cfu) were then counted and reported as cfu/plate. Counts from 100 to 999 cfu per plate are reported as ≥100 cfu/plate. Counts of 1000 cfu and above per plate are reported as ≥1000 cfu/plate. Yeast and moulds were counted as described for bacteria with the following exceptions, a) Sabouraud Dextrose Agar (SDA) containing Chloramphenicol (e.g. heipha Dr. Miller GmbH, No. 1460030020) were used instead of TSA, b) SDA plates were incubated at 25° for 5 days and c) cfu were counted and reported after 48 h and 5 days of incubation. Yeast and moulds counts from 20 to 99 cfu per plate are reported as […]. Yeast and moulds counts of 100 cfu and above per plate are reported as >100 cfu/plate.
(§2) For determining the MIC, the tested microorganism, i.e. the strain of bacteria and/or strain of yeast and/or strain of mould, were freshly grown until the end of the logarithmic growth phase according to the requirements of the individual species to a density of approximately 10^7-10^9 cells/ml.
(§3) For example, fresh bacteria cultures of the bacteria E. coli, e.g. E. coli ATCC 11229, and S. aureus, e.g. S. aureus strains DSMZ 346, were prepared by inoculation of 3 ml liquid growth media (tryptic soy broth, e.g. Fluka Cat. No. 22092) from a stock culture and incubation for 16 to 20 h at 30° C. with agitation at 150 rotations per minutes (rpm) leading to a cell density of approximately 2×10^8 cells/ml. Fresh cultures of resistant bacteria, adapted to the conditions in biocide containing CaCO3 slurries, were prepared by inoculation of 50 g 75 wt.-% solid content CaCO3 slurry from a stock culture and incubated for 14 to 28 days at 30° C. without agitation.
(§4) Lithium ions were added to the aqueous preparation (e.g. CaCO3 slurry) by the addition of a water soluble lithium salt. For example to 50 g CaCO3 slurry with a solid content of 75% (w/w) 1.177 ml of a 74 g/Li2CO3 suspension was added and mixed well leading to a lithium ion concentration of 172 mM or 1205 ppm in the water phase. As another example to 50 g CaCO3 slurry with a solid content of 75 wt.-% (w/w) 0.04 ml of a 292 g/L Li3Citrate (2M) solution was added and mixed well leading to a lithium ion concentration of 19 mM or 135 ppm in the water phase.
(§5) The biocide to be tested was added to the aqueous preparation (e.g. CaCO3 slurry with or without lithium ions) in increasing concentrations starting from 0 ppm (without biocide). The concentrations ranged from concentrations higher than recommended by the supplier, to very low amounts (as low as 1 ppm or lower). Of each biocide concentration a 3 ml sample of aqueous preparation was combined with 20 μl fresh bacterial culture.
(§6) All samples were incubated at 30° C. for 24 h. After incubation colony forming units (cfu) per plate (cfu/plate) were determined as described above under bacterial count.
(§7) The MIC for bacteria is defined as the lowest concentration of biocide in the presence or absence of lithium ion amongst all samples tested, where the bacterial concentration dropped below 100 cfu/plate. The MIC for yeast and mould is defined as the lowest concentration of biocide in the presence or absence of lithium ion amongst all samples tested, where the microbial concentration dropped below 20 cfu/plate.

Assay [1] deals with S. aureus strain DSMZ 346. The experiment in a line: MIC determination / bacterial count in CaCO3 slurry with or without lithium ions. The format is cell-based. The conditions noted are these: for MIC: Staphylococcus aureus, DSMZ346, S. aureus, read-out: MIC active/aequeous; for bacterial count: S. aureus DSMZ 346; for antimicrobial effect of lithium ions provided alone: S. aureus strain. The procedure:
as §1, §2, §3, §4, §5, §6, §7

Another assay deals with E. coli strain ATCC11229. Described as above. Format: cell-based. The conditions noted are these: for MIC ratio (MICwithout Li/MICLi): E. coli; for MIC: Escherichia coli; for bacterial count: E. coli ATCC11229. Here is the method:
as §1, §2, §3, §4, §5, §6, §7

Setting [2] is: S. aureus, Li^+ 423 mM (2964 ppm), Li2CO3.
[3] abbreviates: ATCC11229, read-out: MIC active/aequeous, E. coli, Li^+ 329 mM (2305 ppm), Li2CO3.
Setting [4] is: ATCC11229, read-out: MIC active/aequeous, E. coli, no Li^+.
[5] abbreviates: ATCC11229, read-out: MIC active/aequeous, E. coli, Li^+ 197 mM (1380 ppm), Li2CO3.
The mark [6] stands for this setting: S. aureus, Li^+ 197 mM (1380 ppm), Li2CO3.
Where [7] appears, read: S. aureus, Li^+ 329 mM (2305 ppm), Li2CO3.

`OC1OCCOC1O` (stereo not drawn) [1,6-Dihydroxy-2,5-dioxane]: the MIC with bacterial strain rOmyAK (Li^+ 197 mM (1380 ppm), Li2CO3) is 8700 µM and 1060 µg/mL; in the assay with bacterial strain rOmyAK (Li^+ 423 mM (2964 ppm), Li2CO3), 5800 µM and 708 µg/mL; with bacterial strain rOmyAK (no Li^+) it was 3100 µM and > 1590 µg/mL. Besides, the “MIC ratio (MICwithout Li/MICLi)” value in the assay with bacterial strain rOmyAK (Li^+ 197 mM (1380 ppm), Li2CO3) is over 1.5; in the assay on bacterial strain rOmyAK (Li^+ 423 mM (2964 ppm), Li2CO3), over 2.25.

As to `CN1CSC(=S)N(C)C1` [3.5-Dimethyltetrahydro-1,3,5-thiadiazine-2-], the “MIC ratio (MICwithout Li/MICLi)” value in assay [1] (setting [2]) is recorded as over 2.5; in the assay on E. coli strain ATCC11229 (Li^+ 329 mM (2305 ppm), Li2CO3), 1.25. Also, the MIC is 440 µM and 70.8 µg/mL in assay [1] (Li^+ 423 mM (2964 ppm), Li2CO3); > 1090 µM and > 177 µg/mL in assay [1] (no Li^+); 870 µM and 142 µg/mL in the assay with E. coli strain ATCC11229 (setting [3]); 1090 µM and 177 µg/mL in the assay with E. coli strain ATCC11229 (setting [4]).

Regarding `Cc1cc(O)ccc1Cl` [4-Chloro-3-methylphenol], the “MIC ratio (MICwithout Li/MICLi)” value came to 1.5 in assay [1] (setting [2]); 2 with E. coli strain ATCC11229 (Li^+ 197 mM (1380 ppm), Li2CO3); 4 in the assay with E. coli strain ATCC11229 (Li^+ 329 mM (2305 ppm), Li2CO3). Further, the MIC in assay [1] (Li^+ 423 mM (2964 ppm), Li2CO3) was 2480 µM and 354 µg/mL; in assay [1] (no Li^+) it was 3720 µM and 531 µg/mL; with E. coli strain ATCC11229 (setting [5]) it was 177 µg/mL and 1240 µM; in the assay on E. coli strain ATCC11229 (setting [3]), 620 µM and 88.5 µg/mL; with E. coli strain ATCC11229 (setting [4]) it was 354 µg/mL and 2480 µM. The bacterial count in the assay on E. coli strain ATCC11229 (88.5 ppm 4-chloro-3-methylphenol, 197 mM Li^+) was at least 100 cfu/plate; in the assay on E. coli strain ATCC11229 (88.5 ppm 4-chloro-3-methylphenol, no Li^+), at least 1000 cfu/plate.

Turning to `O=[N+]([O-])C(Br)(CO)CO` [Bronopol], the “MIC ratio (MICwithout Li/MICLi)” value in assay [1] (S. aureus, Li^+ 172 mM (1205 ppm), Li2CO3) is 6; in assay [1] (setting [6]) it was 2; in assay [1] (setting [7]), 6; in assay [1] (setting [2]) it was 20; in the assay on E. coli strain ATCC11229 (Li^+ 172 mM (1205 ppm), Li2CO3), over 3.75; in the assay with E. coli strain ATCC11229 (Li^+ 197 mM (1380 ppm), Li2CO3), 3. For the same molecule, the MIC in assay [1] (Li^+ 172 mM (1205 ppm), Li2CO3) is 150 µM and 30 µg/mL; in assay [1] (Li^+ 197 mM (1380 ppm), Li2CO3), 450 µM and 90 µg/mL; in assay [1] (Li^+ 329 mM (2305 ppm), Li2CO3), 150 µM and 30 µg/mL; in assay [1] (Li^+ 423 mM (2964 ppm), Li2CO3) it was 50 µM and 9 µg/mL; in assay [1] (no Li^+) it was 900 µM and 180 µg/mL; in the assay with E. coli strain ATCC11229 (ATCC11229, E. coli, Li^+ 172 mM (1205 ppm), Li2CO3, read-out: MIC active/aequeous), 120 µM and 24 µg/mL. Also, the MIC in the assay with E. coli strain ATCC11229 (ATCC11229, E. coli, Li^+ 197 mM (1380 ppm), Li2CO3, read-out: MIC active/aequeous) is 180 µM and 35.4 µg/mL; in the assay with E. coli strain ATCC11229 (ATCC11229, E. coli, no Li^+, read-out: MIC active/aequeous), 530 µM and 106 µg/mL.

Consider `C=O` [Formaldehyde], for which the “MIC ratio (MICwithout Li/MICLi)” value in assay [1] was over 10; in the assay with E. coli strain ATCC11229 (Li^+ 197 mM (1380 ppm), Li2CO3), over 2; in the assay with bacterial strain rOmyAK (Li^+ 197 mM (1380 ppm), Li2CO3), over 3. Also, the MIC was 590 µM and 17.7 µg/mL with E. coli strain ATCC11229 (setting [5]); > 1180 µM and > 35.4 µg/mL with E. coli strain ATCC11229 (setting [4]); 11800 µM and 354 µg/mL in the assay with bacterial strain rOmyAK (Li^+ 197 mM (1380 ppm), Li2CO3); > 35400 µM and > 1060 µg/mL in the assay with bacterial strain rOmyAK (no Li^+).

With `O=CCCCC=O` [Glutaraldehyde], in assay [1] (setting [6]), the “MIC ratio (MICwithout Li/MICLi)” value is on record as over 10. The MIC was 40 µM and 3.54 µg/mL in assay [1] (Li^+ 197 mM (1380 ppm), Li2CO3); > 350 µM and > 35.4 µg/mL in assay [1] (no Li^+).

On to `CCCCCCCCCCCCN=C(N)N.Cl` [Guanidinedodecyl monochloride], for which, in the assay with E. coli strain ATCC11229 (Li^+ 197 mM (1380 ppm), Li2CO3), the “MIC ratio (MICwithout Li/MICLi)” value was over 2.4.

As for `O=S(=O)(C(Cl)(Cl)Cl)C(Cl)(Cl)Cl` [Hexachlorodimethyl sulfone], the “MIC ratio (MICwithout Li/MICLi)” value in assay [1] (setting [7]) worked out at 1.33; in the assay with E. coli strain ATCC11229 (Li^+ 197 mM (1380 ppm), Li2CO3), 1.67.

Take `[Li+]` [Li^+]: the bacterial count in assay [1] (no CMIT/MIT, 197 mM Li^+ (Li2CO3) alone) is given as at least 1000 cfu/plate; in assay [1] (no Sodium pyrithione, 96 mM Li^+ (lithium citrate) alone), at least 1000 cfu/plate; in the assay with E. coli strain ATCC11229 (no 4-chloro-3-methylphenol, 197 mM Li^+ (Li2CO3) alone) it was at least 100 cfu/plate; in the assay with bacterial strain rOmyAK (rOmy AK, no MIT, 329 mM Li^+ (Li2CO3) alone), at least 1000 cfu/plate. Also, the “antimicrobial effect of lithium ions provided alone” value in assay [1] (lithium ions via Li2CO3, no biocide) was “no antimicrobial effect”; in assay [1] (lithium ions via lithium citrate, no biocide) it was “no antimicrobial effect”; in the assay with E. coli strain ATCC11229 (E. coli strain, lithium ions via Li2CO3, no biocide) it was “no antimicrobial effect”; in the assay with bacterial strain rOmyAK (rOmy AK strain, lithium ions via Li2CO3, no biocide) it was “no antimicrobial effect”.

In the case of `N#CSCSC#N` [Methylene bis(thiocyanate)], in assay [1] (setting [7]), the “MIC ratio (MICwithout Li/MICLi)” value worked out at 4.04.

`[Na+].[O-][n+]1ccccc1[S-]` [Sodium pyrithione]: the “MIC ratio (MICwithout Li/MICLi)” value in the assay with E. coli strain ATCC11229 (Li^+ 197 mM (1380 ppm), Li2CO3) was 3.

Regarding “Polyethoxyethoxyethylguanidinium hexachloride”, the “MIC ratio (MICwithout Li/MICLi)” value with E. coli strain ATCC11229 (Li^+ 197 mM (1380 ppm), Li2CO3) is given as over 1.33; in the assay with E. coli strain ATCC11229 (Li^+ 423 mM (2964 ppm), Li2CO3) it was over 8.
